Data set [1] in a line: Mouse toxicity, maximum tolerated dose by intravenous injection. Particulars: in vivo, maximum dose by intravenous injection without deaths after 24 hrs.
For a further data set, the system named is PP2A. The experiment in a line: PP2A activity in 32D:BCR/Abl chronic myelogenous leukemia cells (PP2A immunoprecipitation assay). The class given is cell-based. Particulars: 1 μM, 32D:BCR/Abl cells. The procedure: FIGS. 4A-4B. The BMOE-linked dimer peptide COG449 activates PP2A in CML cells. FIG. 4A: 32D-BCR/Abl chronic myelogenous leukemia cells were treated with COG449 (1 μM), COG445 (1 μM) (disulfide-linked COG112 dimer) or no treatment, and the PP2A activity was measured. FIG. 4B: 32D:BCR/Abl cell cultures were treated with no compound, 1 μM COG449, or 5 μM FTY720 for 30 minutes followed by lysis in an NP40 lysis buffer. PP2A was immunoprecipitated and assayed with the PP2A Immunoprecipitation assay kit (Upstate) according to the manufacturer's directions.
To further evaluate the effect of COG449, we measured the ability of the stable dimerized COG449 compound to activate PP2A in 32D:p210^BCR/Abl chronic myelogenous leukemia cells. […] 32D:p210^BCR/Abl chronic myelogenous leukemia cells were treated with no compound, 1 μM COG449, or 5 μM FTY720. We observed a robust increase of approximately 45% relative specific activity (phosphate release/minute/unit protein) of PP2A upon treatment with COG449 alone when compared to the untreated control, and about 20% activation compared with FTY720 (FIG. 4B).

For a further data set, the system named is EGFR. The experiment in a line: EGF-induced EGFR activation, Western blot. The class given is cell-based. Conditions: up to 1 μM, U87 and MB231, EGF. From the text: FIGS. 10A-10B. […] FIG. 10A: Western blot analysis of U87 glioblastoma cells exposed to the indicated concentrations of COG445 peptide in the presence of EGF. The blot is probed with antibodies for the activated EGF receptor (P-EGFR), total EGF receptor, activated PDK1 (P-PDK1), and total PDK1. FIG. 10B: Western blot and densitometry analysis of Akt activation induced by EGF in U87 cells in the presence of increasing concentrations of COG445.
Akt signaling is often dysregulated in cancers thereby promoting cellular survival and proliferation. […] Given the effect of ApoE peptides on other inflammatory pathologies, we investigated the effect of an ApoE peptide dimer on Akt signaling in breast and brain cancer cells. A disulfide dimer of COG112 (SEQ ID NO: 1) was prepared as described in Example 1 (COG445). Adherent breast cancer cells, MDA-MB-231 (MB231), or glioblastoma cells, U87-MG (U87), were serum starved overnight and then exposed to COG445 for 2 hours before stimulating with epidermal growth factor (EGF) for 5 minutes. […] EGFR activation results in the activation of the PI3K/Akt signaling pathway, which is mediated by PDK1 activation.

Another data set has as its system c-myc. The experiment in a line: Total c-myc protein levels, Western blot. The class given is cell-based. The source says: FIG. 12A: Total PP2A activity immunoprecipitated from MDA-MB-231 cells treated with EGF and increasing concentrations of COG445. FIG. 12B: Western blot and densitometry analysis of total c-myc protein levels in U87 cells treated with the indicated concentrations of COG445 in the presence or absence of okadaic acid. FIG. 12C: Immunoprecipitation of the catalytic subunit of PP2A from MDA-MB-231 cells exposed to EGF and two different concentrations of COG445. The blot is probed for I2PP2A (SET) and PP2A catalytic subunit.
To further characterize the effect of COG445 on PP2A activity, MB231 cells were treated as above and the phosphatase activity of immunoprecipitated PP2A was measured. EGF stimulation caused a significant decrease in total PP2A activity compared to untreated serum starved cells (FIG. 12A). […] To further explore the extent of PP2A activation in response to COG445, total c-myc protein levels were determined by western blot analysis. C-myc is a substrate for PP2A and upon dephosphorylation is metabolized by ubiquitination and proteasomal degradation. In both U87 (FIG. 12B) and MB231 (data not shown) cell lines, c-myc levels decreased after a two-hour exposure to COG445 in a dose-dependent manner, reaching statistical significance at 1000 nM.

Another data set concerns mTOR. In words: mTOR phosphorylation in MB231 cells, Western blot. The class given is cell-based. Conditions: markedly reduced at ≧100 nM. From the text: (§1) FIG. 13A: Western blot and densitometry analysis of phosphorylated m-TOR levels in MDA-MB-231 cells treated with EGF and the indicated concentrations of COG445 in the presence or absence of okadaic acid. FIG. 13B: Western blot analysis of phosphorylated GSK-3β levels in MDA-MB-231 cells treated with EGF and the indicated concentrations of COG445 in the presence or absence of okadaic acid.
(§2) Akt exerts its proliferative signal by phosphorylating protein substrates such as mTOR and GSK-3β. To examine the effects of COG445 on downstream Akt signaling in MB231 cells, mTOR activation and GSK-3β inhibition was measured by western blot analysis. […] The reduction in mTOR and GSK-3β phosphorylation was eliminated in the presence of okadaic acid, further evidence that PP2A mediates the effects of COG445 on Akt signaling.

The subject of a further data set is GSK-3β. In words: GSK-3β phosphorylation in MB231 cells, Western blot. The class given is cell-based. Conditions: markedly reduced at ≧100 nM.
Text: as §1, §2

The next data set has as its system MB231 cells. In words: Apoptosis after 24 hours of COG445. The class given is cell-based. Particulars: 1-1000 nM.

Here are results for one substance from patent US9809640B2, “ApoE peptide dimers and uses thereof” (priority 2010, dated 2017).

Positions of bridges follow the written chain, without caps; N, C: chain ends. Chains are numbered I, II in the order given.

Turning to “I: Ac-RQIKIWFQNRRMKWKKCLRVRLASHLRKLRKRLL-NH2 / II: Ac-RQIKIWFQNRRMKWKKCLRVRLASHLRKLRKRLL-NH2 (disulfide I:17-II:17) [COG445, COG112-C-C-COG112]”, the MTD at 24 h in data set [1] came to 28 mg/kg. Besides, the “phosphate release due to activation of PP2A relative to untreated control cells” value in the data set on PP2A is on record as “increased phosphate release”. For the same substance, in the data set on EGFR, the “EGFR activation (tyrosine 1045 phosphorylation)” value is reported as “did not alter”. Also, the “c-myc levels in the presence of OA” value in the data set with c-myc was “unaltered”. Also, in the data set on c-myc (two-hour exposure, U87 and MB231, significant at 1000 nM), the c-myc levels entry is given as “decreased”. In the data set with mTOR, the “mTOR phosphorylation upon EGF stimulation” value is listed as “dose-dependent decrease”. Further, in the data set on GSK-3β, the “GSK-3β phosphorylation upon EGF stimulation” value is “dose-dependent decrease”. In addition, the apoptosis result in the data set with MB231 cells is “no indication of apoptosis”.
